# “Also recorded” adds a separate entry of the source.
# Assays:
# [1] = Second-order rate constants of CuAAC reaction by LC-MS of quenched aliquots; settings: 4:1 DMSO:buffer, Tris buffer over a standard range of concentrations
# [2] = Ligand screening by reaction calorimetry (peak reaction power); design: key to calorimetry ligand category: reactions that failed to produce a signal in the calorimeter were classified as identifying “inactive” ligands; moderate: give observable, but not very strong, calorimetry signals; settings: 65° C.
# Excerpt: Reaction calorimetry was used to evaluate the relative merits of various ligands under practical conditions of organic synthesis, e.g., involving high concentrations of azide and alkyne reagents and low loadings of catalyst. After correction for instrumental heat transfer parameters, thermograms provide a direct real-time measure of reaction rate (power output); integration gives the overall time-vs.-completion curve. […] All such measurements were made in the same 4:1 DMSO:aqueous solvent as before, but at 65° C. rather than room temperature, in order to keep the product triazole in solution at the higher concentrations used.
# Calorimetry was performed in an Omnical INSIGHT® 10-channel reaction calorimeter using 40 mL glass vials. In a typical run all the reaction components but one were introduced into the vials inside an inert atmosphere glovebox, and vials were sealed with septum caps. The last reaction component to be added was placed in a Hamilton gastight syringe. The vials and syringes were then allowed to equilibrate inside the preheated instrument (65° C.) for 30 minutes. The reaction was started in all vials by depressing all of the syringes simultaneously. Two vials out of ten were charged only with solvent to obtain readings allowing for compensation for the heat of mixing. The thermograms registered in these two channels upon addition of the last component were used to construct the baseline for the other 8 channels.
# Since heat is not transferred to the instrument sensor instantaneously, the thermogram registered by the instrument is dependent on the characteristics of the instrument and reaction vessel. Correction for these extraneous factors must be applied to the recorded thermograms to obtain instrument-independent data (Rosner, T.; et al. J. Am. Chem. Soc. 2001, 123, 1848-1855; Liu, J.-S.; et al. Thermochimica Acta 1994, 236, 113-122). The appropriate dynamic correction function is built into the instrument operating software. Use of vendor supplied software produces the same result as manual correction.
# By the same token, catalysts such as Cu.1 that give observable, but not very strong, calorimetry signals cannot be fully analyzed by converting thermograms to completion curves, because a significant amount of the total energy output is lost below the detection threshold of the instrument. TBTA (1) falls into this category, classified as “moderate” ligands. […] However, peak power values (i.e., maximum reaction rate) provided a reproducible relative measure of relative catalytic efficiency.
# Ligands were screened under the following conditions: 250 mM benzyl azide, 454 mM phenylacetylene, 2 mM CuSO4, 4 mM ligand, 25 mM sodium ascorbate. Phenylacetylene was the last component added. Initial screening was performed with at least two independent trials for each ligand. Candidates showing promising activity were then examined with at least three independent trials to obtain reliable estimations of experimental error.
compound,measurement,setting,value
"c1ccc(Cn2cc(CN(Cc3cn(Cc4ccccc4)nn3)Cc3cn(Cc4ccccc4)nn3)nn2)cc1 [TBTA (1), tris((1-benzyl-1H-1,2,3-triazol-4-yl)methyl)amine, reference compound]",effect of Tris buffer on rate,[1],slowed significantly
same,calorimetry ligand category,"[2]; 250 mM benzyl azide, 454 mM phenylacetylene, 2 mM CuSO4, 4 mM ligand, 25 mM sodium ascorbate",moderate
same,relative catalytic activity by calorimetry,"[2]; high reactant concentrations, 1% Cu, 4:1 DMSO:aqueous",sluggish catalyst compared to many of the others tested; also recorded: lower half of the ligands tested

# Reference: patent US8563738B2, “Ligands for copper-catalyzed azide-alkyne cycloaddition reactions” (The Scripps Research Institute, priority 2007, dated 2013)
